Laboratory results from ChEMBL document CHEMBL1154879, “Discovery of (thienopyrimidin-2-yl)aminopyrimidines as potent, selective, and orally available pan-PI3-kinase and dual pan-PI3-kinase/mTOR inhibitors for the treatment of cancer” (J Med Chem, 2010).

Experiments:
[1] = Antiproliferative activity against human MCF7.1 cells expressing PI3Kalpha mutant after 3 to 4 days; format: functional, cell-based
PC-3 = test: Antiproliferative activity against human PC3 cells deficient in PTEN in after 3 to 4 days; format: functional, cell-based
[2] = Clearance in Sprague-Dawley rat at 1 mg/kg, iv; format: ADME, organism-based; design: dose 1 mg/kg, route intravenous; details: in vivo
[3] = Oral bioavailability in Sprague-Dawley rat at 2 mg/kg; format: ADME, organism-based; details: in vivo
[4] = Clearance in Sprague-Dawley rat liver microsomes; format: ADME, Microsome
[5] = target: Serine/threonine-protein kinase mTOR (Homo sapiens, UniProt P42345)
[6] = target: Phosphatidylinositol 4,5-bisphosphate 3-kinase catalytic subunit alpha isoform (Homo sapiens, UniProt P42336)
Chain of Phosphatidylinositol 4,5-bisphosphate 3-kinase catalytic subunit alpha isoform (P42336 whole entry, canonical isoform): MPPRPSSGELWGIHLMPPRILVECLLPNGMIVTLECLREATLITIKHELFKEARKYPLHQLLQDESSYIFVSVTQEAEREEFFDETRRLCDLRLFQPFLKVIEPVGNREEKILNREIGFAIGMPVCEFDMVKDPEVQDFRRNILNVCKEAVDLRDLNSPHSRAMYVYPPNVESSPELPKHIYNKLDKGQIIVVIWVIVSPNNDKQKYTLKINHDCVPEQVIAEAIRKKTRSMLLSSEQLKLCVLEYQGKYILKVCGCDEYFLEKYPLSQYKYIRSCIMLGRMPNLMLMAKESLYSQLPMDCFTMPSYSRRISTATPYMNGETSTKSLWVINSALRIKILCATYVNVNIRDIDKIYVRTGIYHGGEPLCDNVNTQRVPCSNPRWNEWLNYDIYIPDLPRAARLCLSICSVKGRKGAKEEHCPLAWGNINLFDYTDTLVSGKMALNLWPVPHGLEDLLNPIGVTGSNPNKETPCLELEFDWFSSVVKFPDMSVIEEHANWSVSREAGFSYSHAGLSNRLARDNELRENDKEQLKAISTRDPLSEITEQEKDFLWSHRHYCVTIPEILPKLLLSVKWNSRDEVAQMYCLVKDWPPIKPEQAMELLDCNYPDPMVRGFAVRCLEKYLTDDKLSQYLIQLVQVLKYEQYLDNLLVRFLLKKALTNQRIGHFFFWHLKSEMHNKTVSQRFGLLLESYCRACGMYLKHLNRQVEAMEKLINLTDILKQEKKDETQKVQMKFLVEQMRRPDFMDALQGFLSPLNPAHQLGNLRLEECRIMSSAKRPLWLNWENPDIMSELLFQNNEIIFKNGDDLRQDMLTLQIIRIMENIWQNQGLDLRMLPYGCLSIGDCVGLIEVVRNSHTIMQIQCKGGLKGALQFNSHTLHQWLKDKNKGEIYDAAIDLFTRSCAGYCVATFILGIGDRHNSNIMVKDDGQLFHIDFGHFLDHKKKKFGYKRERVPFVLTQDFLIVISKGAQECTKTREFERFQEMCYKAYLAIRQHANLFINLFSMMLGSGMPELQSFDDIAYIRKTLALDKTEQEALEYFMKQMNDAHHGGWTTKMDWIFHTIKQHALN

[7] = target: Phosphatidylinositol 4,5-bisphosphate 3-kinase catalytic subunit beta isoform (Homo sapiens, UniProt P42338); test: Inhibition of recombinant PI3Kbeta assessed as PIP3 product formation by fluorescence polarization assay
Chain of Phosphatidylinositol 4,5-bisphosphate 3-kinase catalytic subunit beta isoform (P42338 whole entry, canonical isoform): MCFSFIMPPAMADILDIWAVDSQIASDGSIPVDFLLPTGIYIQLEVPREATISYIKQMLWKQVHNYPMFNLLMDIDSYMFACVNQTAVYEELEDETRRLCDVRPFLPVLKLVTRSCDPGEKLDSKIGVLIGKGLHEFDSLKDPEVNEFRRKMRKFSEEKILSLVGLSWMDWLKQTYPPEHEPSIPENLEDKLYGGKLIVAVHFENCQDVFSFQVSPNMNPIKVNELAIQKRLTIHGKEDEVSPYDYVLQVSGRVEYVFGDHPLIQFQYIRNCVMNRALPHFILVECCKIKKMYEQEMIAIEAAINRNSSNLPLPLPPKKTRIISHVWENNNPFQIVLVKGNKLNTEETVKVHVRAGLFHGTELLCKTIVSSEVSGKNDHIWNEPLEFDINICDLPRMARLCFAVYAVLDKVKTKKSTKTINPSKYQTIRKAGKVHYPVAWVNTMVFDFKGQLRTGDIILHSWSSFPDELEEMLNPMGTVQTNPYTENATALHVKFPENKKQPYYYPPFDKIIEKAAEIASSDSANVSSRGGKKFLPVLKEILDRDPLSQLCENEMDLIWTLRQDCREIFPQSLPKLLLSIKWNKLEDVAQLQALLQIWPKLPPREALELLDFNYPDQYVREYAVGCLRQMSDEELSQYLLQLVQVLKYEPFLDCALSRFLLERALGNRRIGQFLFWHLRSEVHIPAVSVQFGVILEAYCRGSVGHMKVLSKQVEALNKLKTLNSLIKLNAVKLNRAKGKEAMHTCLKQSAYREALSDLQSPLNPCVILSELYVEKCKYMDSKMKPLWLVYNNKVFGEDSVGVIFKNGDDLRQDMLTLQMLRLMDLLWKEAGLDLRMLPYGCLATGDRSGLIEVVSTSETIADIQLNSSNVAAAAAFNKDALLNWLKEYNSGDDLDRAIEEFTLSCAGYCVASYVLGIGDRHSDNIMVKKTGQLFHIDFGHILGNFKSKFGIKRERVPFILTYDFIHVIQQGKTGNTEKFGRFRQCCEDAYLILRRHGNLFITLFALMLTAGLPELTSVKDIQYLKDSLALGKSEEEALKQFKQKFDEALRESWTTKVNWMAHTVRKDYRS

[8] = target: T1, Phosphatidylinositol 4,5-bisphosphate 3-kinase catalytic subunit delta isoform (Homo sapiens, UniProt O00329)
T1 sequence (O00329 whole entry): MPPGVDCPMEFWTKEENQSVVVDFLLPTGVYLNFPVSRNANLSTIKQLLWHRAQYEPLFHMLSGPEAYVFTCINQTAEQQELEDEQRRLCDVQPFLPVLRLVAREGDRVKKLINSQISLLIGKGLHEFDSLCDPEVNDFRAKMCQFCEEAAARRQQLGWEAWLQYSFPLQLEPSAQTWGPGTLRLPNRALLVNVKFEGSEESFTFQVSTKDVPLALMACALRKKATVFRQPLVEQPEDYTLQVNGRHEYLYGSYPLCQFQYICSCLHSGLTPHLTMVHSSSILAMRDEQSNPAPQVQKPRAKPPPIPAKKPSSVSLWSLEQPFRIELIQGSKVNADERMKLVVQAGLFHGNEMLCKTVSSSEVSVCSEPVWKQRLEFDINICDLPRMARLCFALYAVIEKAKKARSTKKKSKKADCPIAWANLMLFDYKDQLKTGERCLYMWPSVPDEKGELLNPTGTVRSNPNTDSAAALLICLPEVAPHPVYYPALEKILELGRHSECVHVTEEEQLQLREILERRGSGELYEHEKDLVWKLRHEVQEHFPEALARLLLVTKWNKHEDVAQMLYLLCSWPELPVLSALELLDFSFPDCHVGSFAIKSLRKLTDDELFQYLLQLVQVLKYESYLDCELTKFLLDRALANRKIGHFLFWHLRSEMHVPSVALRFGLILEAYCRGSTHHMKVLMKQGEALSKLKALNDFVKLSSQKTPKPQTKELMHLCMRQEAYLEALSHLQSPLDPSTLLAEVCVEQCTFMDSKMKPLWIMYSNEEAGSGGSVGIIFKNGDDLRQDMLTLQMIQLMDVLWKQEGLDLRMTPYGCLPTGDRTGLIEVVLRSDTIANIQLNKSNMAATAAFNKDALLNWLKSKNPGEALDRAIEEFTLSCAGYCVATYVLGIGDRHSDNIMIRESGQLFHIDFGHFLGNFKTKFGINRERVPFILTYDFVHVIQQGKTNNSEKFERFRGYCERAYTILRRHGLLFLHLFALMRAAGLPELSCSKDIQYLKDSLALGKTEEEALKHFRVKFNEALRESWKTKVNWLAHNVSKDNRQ

[9] = target: Phosphatidylinositol 4,5-bisphosphate 3-kinase catalytic subunit gamma isoform (Homo sapiens, UniProt P48736)
Chain of Phosphatidylinositol 4,5-bisphosphate 3-kinase catalytic subunit gamma isoform (P48736 whole entry, canonical isoform): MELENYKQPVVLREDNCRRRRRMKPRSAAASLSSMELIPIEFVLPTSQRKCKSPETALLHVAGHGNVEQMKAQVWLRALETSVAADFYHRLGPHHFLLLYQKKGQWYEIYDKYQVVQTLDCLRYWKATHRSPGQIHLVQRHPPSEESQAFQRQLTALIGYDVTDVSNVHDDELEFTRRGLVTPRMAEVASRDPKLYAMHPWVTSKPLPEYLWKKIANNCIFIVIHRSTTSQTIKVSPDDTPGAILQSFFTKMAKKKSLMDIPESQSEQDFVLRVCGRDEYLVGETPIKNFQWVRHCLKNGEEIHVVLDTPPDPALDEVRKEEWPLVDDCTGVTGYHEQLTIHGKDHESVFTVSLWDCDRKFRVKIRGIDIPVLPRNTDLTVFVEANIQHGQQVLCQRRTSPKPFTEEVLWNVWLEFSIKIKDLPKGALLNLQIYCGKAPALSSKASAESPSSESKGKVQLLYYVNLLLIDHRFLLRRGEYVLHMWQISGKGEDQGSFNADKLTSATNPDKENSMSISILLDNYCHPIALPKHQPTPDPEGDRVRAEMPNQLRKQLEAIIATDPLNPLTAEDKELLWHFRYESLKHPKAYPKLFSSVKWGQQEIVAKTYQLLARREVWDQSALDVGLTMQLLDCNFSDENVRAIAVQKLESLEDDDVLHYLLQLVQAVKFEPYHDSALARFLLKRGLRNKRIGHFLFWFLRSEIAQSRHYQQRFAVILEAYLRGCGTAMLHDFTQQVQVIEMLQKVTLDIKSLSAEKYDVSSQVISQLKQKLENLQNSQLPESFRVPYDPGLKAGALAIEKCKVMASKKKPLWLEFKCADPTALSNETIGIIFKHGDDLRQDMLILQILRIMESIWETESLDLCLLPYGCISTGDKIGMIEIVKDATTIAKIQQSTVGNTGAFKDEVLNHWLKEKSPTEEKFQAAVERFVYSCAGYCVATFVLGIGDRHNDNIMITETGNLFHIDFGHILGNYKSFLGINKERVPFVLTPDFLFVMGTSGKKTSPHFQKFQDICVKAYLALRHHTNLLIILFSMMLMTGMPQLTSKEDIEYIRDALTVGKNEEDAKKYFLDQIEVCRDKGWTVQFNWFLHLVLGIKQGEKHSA

[10] = Volume of distribution at steady state in Sprague-Dawley rat at 1 mg/kg, iv; format: ADME, organism-based; design: dose 1 mg/kg, route intravenous; details: in vivo, read-out: Vdss
[11] = Clearance in Beagle dog at 1 mg/kg, iv; format: ADME, organism-based, Canis lupus familiaris; design: dose 1 mg/kg, route intravenous; details: in vivo
[12] = Oral bioavailability in Sprague-Dawley rat at 5 mg/kg, po; format: ADME, organism-based; details: in vivo

IC50 (PC-3) | clearance [2] | bioavailability [3] | CLint scaled [4] | IC50 [5] | IC50 [6] | IC50 [7] | IC50 [8] | IC50 [9] | Vd [10] | clearance [11] | bioavailability [12] | Structure (SMILES) | IC50 [1]
1400 nM | 16 mL/min/kg | 29% | 40 mL/min/kg | 130 nM | 22 nM |  |  |  |  |  |  | CC(C)(O)c1cc2nc(-c3cccc4[nH]ncc34)nc(N3CCOCC3)c2s1 | 1400 nM
1200 nM |  |  | 170 mL/min/kg |  | 29 nM |  |  |  |  |  |  | OCc1cc2nc(-c3cccc4[nH]ncc34)nc(N3CCOCC3)c2s1 | 
21 nM |  |  |  |  | 1.6 nM | 11 nM | 0.9 nM | 20 nM |  |  |  | CS(=O)(=O)N1CCN(Cc2cc3nc(-c4cccc(O)c4)nc(N4CCOCC4)c3s2)CC1 | 36 nM
1500 nM | 86 mL/min/kg | 34% | 40 mL/min/kg |  | 16 nM |  |  |  |  |  |  | CC(=O)NCc1cc2nc(-c3cccc4[nH]ncc34)nc(N3CCOCC3)c2s1 | 
3700 nM |  |  |  |  | 430 nM |  |  |  |  |  |  | CS(=O)(=O)N1CCN(Cc2cc3nc(-c4ccccc4)nc(N4CCOCC4)c3s2)CC1 | 3700 nM
75 nM |  |  |  |  | 1.8 nM |  | 1.4 nM |  |  |  |  | CS(=O)(=O)N1CCN(Cc2cc3nc(-c4cccc(CO)c4)nc(N4CCOCC4)c3s2)CC1 | 320 nM
1800 nM |  |  |  |  | 21 nM | 14 nM | 12 nM | 19 nM |  |  |  | CS(=O)(=O)N1CCN(Cc2cc3nc(-c4cccnc4)nc(N4CCOCC4)c3s2)CC1 | 1400 nM
390 nM |  |  |  |  |  |  |  |  |  |  |  | CS(=O)(=O)N1CCN(Cc2cc3nc(-c4cccc5[nH]ncc45)nc(N4CCOCC4)c3s2)CC1 [PICTILISIB] | 340 nM
230 nM |  |  |  | 880 nM | 1.1 nM | 6.2 nM | 0.7 nM |  |  |  |  | Cc1nc(N)ncc1-c1nc(N2CCOCC2)c2sc(CN3CCN(S(C)(=O)=O)CC3)cc2n1 | 290 nM
300 nM | 24 mL/min/kg |  |  | 29 nM |  | 38 nM | 2.4 nM | 8.4 nM | 5.6 L/kg | 22 mL/min/kg | 75% | CS(=O)(=O)N1CCN(Cc2cc3nc(-c4cnc(N)nc4)nc(N4CCOCC4)c3s2)CC1 | 
1100 nM | 101 mL/min/kg | 17% | 95 mL/min/kg |  | 28 nM |  |  |  |  |  |  | CC(O)c1cc2nc(-c3cccc4[nH]ncc34)nc(N3CCOCC3)c2s1 (configuration not stated) | 
 |  |  |  |  | 2900 nM | 5400 nM | 310 nM | 5100 nM |  |  |  | CS(=O)(=O)N1CCN(Cc2cc3nc(-c4ccncc4)nc(N4CCOCC4)c3s2)CC1 | 
1200 nM |  |  |  |  | 240 nM | 1400 nM | 100 nM | 1300 nM |  |  |  | CS(=O)(=O)N1CCN(Cc2cc3nc(-c4ccc(N)cc4)nc(N4CCOCC4)c3s2)CC1 | 2700 nM
270 nM |  |  |  |  | 5.5 nM | 60 nM | 6.6 nM |  |  | 16 mL/min/kg |  | CS(=O)(=O)N1CCN(Cc2cc3nc(-c4ccc(N)nc4)nc(N4CCOCC4)c3s2)CC1 | 200 nM
